Patent publication US5821261A, “Substituted saturated aza heterocycles as inhibitors of nitric oxide synthase” (Merck & Co., Inc., priority 1996, dated 1998)
Structures can show the parent of a compound that is named as a salt.

Target: Human Inducible Nitric Oxide Synthase (Homo sapiens, UniProt P35228)
Assay: Inhibition of human inducible nitric oxide synthase (formation of L-[2,3,4,5-3H]citrulline from L-[2,3,4,5-3H]arginine)
Assay type: biochemical
Details: 1 μM L-Arg, pH 7.5, room temperature, 30 minutes, aqueous DMSO (max. 5%)
Source text: 26, pp. 258-264. […] J Lowenstein and S. H. Snyder in Methods in Enzymology, Vol. 233, L. Packer, ed., Academic Press, NY, 1994, Ch. 26, pp. 264-269. Various assays for NOS activity have been reported in the literature and are reviewed in the following: M. E. Murphy and E. Noack in Methods in Enzymology, Vol. 233, L. Packer, ed., Academic Press, NY, 1994, Ch. 26, pp. 240-250 and J. M. Hevel and M. A. Marletta in Methods in Enzymology, Vol. 233, L. Packer, ed., Academic Press, NY, 1994, Ch. 26, pp. 250-258. Details for the assay protocols to measure NOS activity are as follows: […] The incubation buffer (100 μL) contained; 100 mM TES, pH 7.5, 5 μM FAD, 5 μM FMN, 10 μM BH4, 0.5 mM NADPH, 0.5 mM DTT, 0.5 mg/mL BSA, 2 mM CaCl2, 10 μg/mL calmodulin (bovine), 1 μM L-Arg, 0.2 μCi L-[2,3,4,5-^3 H]Arg, and the inhibitor in aqueous DMSO (max. 5%). The reaction is initiated by addition of enzyme. Incubations are performed at room temperature for 30 minutes and stopped by the addition of an equal volume of quenching buffer consisting of 200 mM sodium citrate, pH 2.2, 0.02% sodium azide. Reaction products are separated by passing through a cation exchange resin and quantitated as cpm by scintillation counting. Percent inhibition is calculated relative to enzyme incubated without inhibitor according to: […]. Illustrative of the utility of the compounds of Formula I is the ability of such compounds to inhibit NO synthase as shown in Table 1 and as measured by the assay described above: […]

IC50 [µM] | SMILES
11 | COC(=O)[C@@H]1C[C@@H](CNC(=N)N)CN1 [compound 6, (4R)-4-(Guanidinomethyl)-L-Proline Methyl Ester Dihydrochloride]
7.1 | N=C(N)NC[C@@H]1CN[C@H](C(=O)O)C1 [compound 1, (4S)-4-(Guanidinomethyl)-L-Proline Dihydrochloride]
3.5 | N=C(N)NC[C@H]1CN[C@H](C(=O)O)C1 [compound 2, (4R)-4-(Guanidinomethyl)-L-Proline Dihydrochloride]
111 | N=C(N)SC[C@@H]1CN[C@H](C(=O)O)C1 [compound 5, (4S)-4-[(Isothioureido)methyl]-L-Proline Dihydrochloride]
2.7 | N=C(N)N[C@@H]1CN[C@H](C(=O)O)C1 [compound 3, (4S)-4-Guanidino-L-Proline Dihydrochloride]
